# Measurements as given in ChEMBL document CHEMBL6092194, “Development of membrane-targeting chalcone derivatives as antibacterial agents against multidrug-resistant bacteria” (Eur J Med Chem, 2024).
# The source made the active and inactive calls. No cut-off for these calls is given here.
# Experiments:
# Staphylococcus aureus [1] = assay: Antibacterial activity against Staphylococcus aureus ATCC43300 infected in sepsis mouse model assessed as reduction in kidney damage at 5 to 10 mg/kg pre-infected with bacteria for 1 hrs followed by compound administration at 12 hrs interval for 2 days by H and E staining based analysis; format: functional, organism-based; conditions: dose 5-10 mg/kg, time 2.0 day
# [2] = Cytotoxicity against human L02 cells assessed as cell viability at 8 microg/ml by CCK8 assay relative to control; format: toxicity, cell-based; conditions: at 8 µg/mL, read-out: Activity
# Staphylococcus aureus [3] = assay: Antibacterial activity against Staphylococcus aureus ATCC43300 infected in sepsis mouse model assessed as reduction in liver inflammation at 5 to 10 mg/kg pre-infected with bacteria for 1 hrs followed by compound administration at 12 hrs interval for 2 days by H and E staining based analysis; format: functional, organism-based; conditions: dose 5-10 mg/kg, time 2.0 day
# Escherichia coli [4] = assay: Ratio of MBC for Escherichia coli ATCC25922 in presence of 50% blood to MBC for Escherichia coli ATCC25922 in Mueller Hinton Broth; format: functional
# Cell membrane [5] = assay: Disruption of cell membrane in Escherichia coli ATCC25922 assessed as increase in intracellular ROS level by DCFH-DA staining based fluorescence analysis; conditions: dose 1-8 µg/ml
# Escherichia coli [6] = assay: Antibacterial activity against Escherichia coli ATCC25922 infected in sepsis mouse model assessed as reduction in liver damage at 5 to 10 mg/kg pre-infected with bacteria for 1 hrs followed by compound administration at 12 hrs interval for 2 days by H and E staining based analysis; format: functional, organism-based; conditions: dose 5-10 mg/kg, time 2.0 day
# Escherichia coli [7] = assay: Antibacterial activity against Escherichia coli ATCC25922 measured after 20 passages; format: functional, organism-based
# Escherichia coli [8] = assay: Antibacterial activity against penicillin-susceptible Escherichia coli ATCC25922 by broth microdilution method; format: functional
# Escherichia coli [9] = assay: Antibacterial activity against Escherichia coli ATCC25922 infected in sepsis mouse model assessed as reduction in spleen inflammation at 5 to 10 mg/kg pre-infected with bacteria for 1 hrs followed by compound administration at 12 hrs interval for 2 days by H and E staining based analysis; format: functional, organism-based; conditions: dose 5-10 mg/kg, time 2.0 day
# Staphylococcus aureus [10] = assay: Antibacterial activity against Staphylococcus aureus ATCC43300 infected in sepsis mouse model assessed as reduction in spleen damage at 5 to 10 mg/kg pre-infected with bacteria for 1 hrs followed by compound administration at 12 hrs interval for 2 days by H and E staining based analysis; format: functional, organism-based; conditions: dose 5-10 mg/kg, time 2.0 day
# Staphylococcus aureus [11] = assay: Antibacterial activity against Staphylococcus aureus ATCC43300 infected in sepsis mouse model assessed as log reduction in bacterial load in liver at 10 mg/kg pre-infected with bacteria for 1 hrs followed by compound administration at 12 hrs interval for 2 days relative to control; format: functional; conditions: time 2 day
# Staphylococcus aureus [12] = assay: Antibacterial activity against Staphylococcus aureus ATCC43300 infected in sepsis mouse model assessed as reduction in spleen inflammation at 5 to 10 mg/kg pre-infected with bacteria for 1 hrs followed by compound administration at 12 hrs interval for 2 days by H and E staining based analysis; format: functional, organism-based; conditions: dose 5-10 mg/kg, time 2.0 day
# [13] = Ratio of MBC for Escherichia coli ATCC25922 in presence of 50% plasma to MBC for Escherichia coli ATCC25922 in Mueller Hinton Broth; format: functional
# Klebsiella pneumoniae = assay: Antibacterial activity against Klebsiella pneumoniae ATCC10031 by broth microdilution assay; format: functional
# Escherichia coli [14] = assay: Antibacterial activity against Escherichia coli ATCC25922 infected in sepsis mouse model assessed as reduction in inflammatory cell infiltration in liver at 10 mg/kg pre-infected with bacteria for 1 hrs followed by compound administration at 12 hrs interval for 2 days by H and E staining based analysis; format: functional, organism-based; conditions: time 2.0 day
# Staphylococcus aureus [15] = assay: Antibacterial activity against Staphylococcus aureus ATCC43300 infected in sepsis mouse model assessed as log reduction in bacterial load in kidney at 10 mg/kg pre-infected with bacteria for 1 hrs followed by compound administration at 12 hrs interval for 2 days relative to control; format: functional; conditions: time 2 day
# Staphylococcus aureus [16] = assay: Antibacterial activity against Staphylococcus aureus ATCC43300 infected in sepsis mouse model assessed as log reduction in bacterial load in spleen at 10 mg/kg pre-infected with bacteria for 1 hrs followed by compound administration at 12 hrs interval for 2 days relative to control; format: functional; conditions: time 2 day
# Staphylococcus aureus [17] = assay: Antibacterial activity against penicillin-resistant Staphylococcus aureus ATCC31007 by broth microdilution assay; format: functional
# Cell membrane [18] = assay: Induction of cytoplasmic membrane depolarization in Escherichia coli ATCC25922 assessed as fold increase in fluorescence intensity at 8 microg/ml measured within 24 mins by DiSC3(5) dye-based fluorescence assay relative to negative control; format: subcellular; conditions: dose 8.0 µg/ml
# Bacillus subtilis = assay: Antibacterial activity against penicillin-susceptible Bacillus subtilis ATCC9372 by broth microdilution assay; format: functional
# Cell membrane [19] = assay: Disruption of cell membrane in Escherichia coli ATCC25922 assessed as increase in intracellular ROS level by measuring fold increase in fluorescence intensity at 8 microg/ml by DCFH-DA staining based fluorescence analysis relative to blank control group; conditions: dose 8.0 µg/ml
# Staphylococcus aureus [20] = assay: Antibacterial activity against Staphylococcus aureus ATCC43300 infected in sepsis mouse model assessed as log reduction in bacterial load in spleen at 5 mg/kg pre-infected with bacteria for 1 hrs followed by compound administration at 12 hrs interval for 2 days relative to control; format: functional; conditions: time 2 day
# Staphylococcus aureus [21] = assay: Bactericidal activity against Staphylococcus aureus ATCC43300 measured upto 24 hrs by time-kill kinetics assay; format: functional, organism-based; conditions: dose 1-8 µg/ml
# Staphylococcus aureus [22] = assay: Antibacterial activity against Staphylococcus aureus ATCC43300 infected in sepsis mouse model assessed as log reduction in bacterial load in blood at 5 mg/kg pre-infected with bacteria for 1 hrs followed by compound administration at 12 hrs interval for 2 days relative to control; format: functional; conditions: time 2 day
# Staphylococcus aureus [23] = assay: Bactericidal activity against Staphylococcus aureus ATCC43300 assessed as elimination of bacteria at 8 microg/ml measured within 4 hrs by time-kill kinetics assay relative to control; format: functional; conditions: dose 8 µg/ml
# Escherichia coli [24] = assay: Bactericidal activity against Escherichia coli ATCC25922 assessed as bacterial killing at 8 times of MIC measured after 8 hrs by time-kill kinetics assay relative to control; format: functional
# Cell membrane [25] = assay: Disruption of cell membrane in Staphylococcus aureus ATCC43300 assessed as fold increase in protein leakage at 8 microg/ml relative to control; format: subcellular; conditions: dose 8.0 µg/ml
# Escherichia coli [26] = assay: Antibiofilm activity against Escherichia coli ATCC25922 assessed as inhibition of biofilm formation at 16 microg/ml relative to control; format: functional
# Cell membrane [27] = assay: Induction of inner membrane permeabilization in Staphylococcus aureus ATCC43300 assessed as fold increase in fluorescence intensity at 8 microg/ml incubated for 20 mins by PI uptake assay relative to negative control; format: subcellular; conditions: dose 8.0 µg/ml
# Escherichia coli [28] = assay: Antibacterial activity against Escherichia coli ATCC25922 infected in sepsis mouse model assessed as reduction in kidney inflammation at 5 to 10 mg/kg pre-infected with bacteria for 1 hrs followed by compound administration at 12 hrs interval for 2 days by H and E staining based analysis; format: functional, organism-based; conditions: dose 5-10 mg/kg, time 2.0 day
# Staphylococcus aureus [29] = assay: Antibacterial activity against Staphylococcus aureus ATCC43300 infected in sepsis mouse model assessed as reduction in liver damage at 5 to 10 mg/kg pre-infected with bacteria for 1 hrs followed by compound administration at 12 hrs interval for 2 days by H and E staining based analysis; format: functional, organism-based; conditions: dose 5-10 mg/kg, time 2.0 day
# [30] = Toxicity in ip dosed BALB/c mouse assessed as maximum tolerated dose measured after 7 days; format: organism-based; conditions: in vivo, time 7 day
# Staphylococcus aureus [31] = assay: Antibacterial activity against penicillin-resistant Staphylococcus aureus ATCC43300 by broth microdilution assay; format: functional
smiles,measurement,setting,value
CCCCCCOc1cc[n+](CCCOc2ccc(/C=C/C(=O)c3ccc(OCCC[n+]4ccc(OCCCCCC)cc4)cc3)cc2)cc1.[Br-].[Br-],Activity,Staphylococcus aureus [1],Active
same,viability at 8 microg/ml,[2],93.9%
same,Activity,Staphylococcus aureus [3],Active
same,Ratio,Escherichia coli [4],< 2
same,Activity,Cell membrane [5],Dose-dependent-effect
same,Activity,Escherichia coli [6],Active
same,Activity,Escherichia coli [7],Active
same,MIC,Escherichia coli [8],1 µg/mL
same,Activity,Escherichia coli [9],Active
same,Activity,Staphylococcus aureus [10],Active
same,log(activity),Staphylococcus aureus [11],2.13
same,Activity,Staphylococcus aureus [12],Active
same,Ratio,[13],<2
same,MIC,Klebsiella pneumoniae,1 µg/mL
same,Activity,Escherichia coli [14],inactive
same,log(activity),Staphylococcus aureus [15],1.76
same,log(activity),Staphylococcus aureus [16],1.52
same,MIC,Staphylococcus aureus [17],1 µg/mL
same,fold change (FC),Cell membrane [18],7.5
same,MIC,Bacillus subtilis,1 µg/mL
same,fold change (FC),Cell membrane [19],1.5
same,log(activity),Staphylococcus aureus [20],1.02
same,Activity,Staphylococcus aureus [21],Dose-dependent-effect
same,log(activity),Staphylococcus aureus [22],0.8
same,Activity,Staphylococcus aureus [23],>=99.9%
same,Activity,Escherichia coli [24],100%
same,fold change (FC),Cell membrane [25],7.5
same,inhibition at 16 µg/mL,Escherichia coli [26],50.9%
same,fold change (FC),Cell membrane [27],1.5
same,Activity,Escherichia coli [28],Active
same,Activity,Staphylococcus aureus [29],Active
same,MTD at 168 h,[30],50 mg/kg
same,MIC,Staphylococcus aureus [31],0.5 µg/mL
